Data published in ChEMBL document CHEMBL1128985, “Mechanism-based inactivation of -chymotrypsin” (Bioorg Med Chem Lett, 1996).

What was measured:
[1] = target: T1, Chymotrypsin-like elastase family member 2A (Sus scrofa) (UniProt P08419); assay: Irreversible inhibitory activity against porcine pancreatic elastase at concentration 4.8 uM; No irreversible inhibitory activity
T1 sequence (whole entry): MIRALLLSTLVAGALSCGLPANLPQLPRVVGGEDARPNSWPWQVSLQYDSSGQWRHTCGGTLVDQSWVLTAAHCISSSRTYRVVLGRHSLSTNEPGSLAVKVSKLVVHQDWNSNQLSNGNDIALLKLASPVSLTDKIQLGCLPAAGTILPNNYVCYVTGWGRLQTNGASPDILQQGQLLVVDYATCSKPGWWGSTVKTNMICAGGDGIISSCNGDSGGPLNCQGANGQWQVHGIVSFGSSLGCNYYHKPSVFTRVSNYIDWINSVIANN

[2] = target: Chymotrypsinogen A (Bos taurus) (UniProt P00766); assay: Irreversible inhibitory activity against alpha-chymotrypsin; Inhibition observed
[3] = target: Chymotrypsinogen A (Bos taurus) (UniProt P00766); assay: Irreversible inhibitory activity against alpha-chymotrypsin; No inhibition

An Activity [1] of 1.2 mM and an Activity [2] of 500 µM were found for `CC(NC(=O)C(C)NC(=O)CCC(=O)N[C@@H](Cc1ccccc1)C(=O)OC1CC1(Cl)Cl)C(=O)O` (some centres undefined) in this work.
An Activity [3] of 14.5 mM was found for `O=C(O)CCC(=O)N[C@@H](Cc1ccccc1)C(=O)NC1CC1(Cl)Cl` (some centres undefined) in this work.
An Activity [3] of less than 1 mM was found for `O=C(O)CCC(=O)N[C@@H](Cc1ccccc1)C(=O)OC1CC1(Cl)Cl` (some centres undefined) in this work.
